Columns and labels:
MOR133-1 = test: High-throughput multiplexed odorant screening (Smell-seq), barcode RNA-seq readout; assay type: cell-based, mouse; details: OR MOR133-1; pair called as hit, FDR=1%
Excerpt: (§1) We subsequently screened 182 odorants at three concentrations in triplicate against the OR cell library, the equivalent of ˜85,000 individual luciferase assays including controls (FIG. 10A, Table 2). Each 96-well plate in the assay contained positive control odorants and solvent DMSO wells for normalization (FIG. 16). We used the EdgeR software package to determine differentially responsive ORs based on a negative binomial model of barcode counts. We found 114 OR-odorant interactions (out of 7,200 possible), 81 of which are novel, and 24 interactions with 15 orphan receptors (FIG. 10C, FIG. 17 and Supplementary Table 4) (FDR=1%; Benjamini-Hochberg correction). Overall 28 of 39 receptors were activated by at least one odorant, and 68 of 182 odorants activated at least one OR (Table 4). We chose 37 interactions of at least 1.2 fold induction to test individually with a previously developed transient OR assay that has several important differences (FIG. 18). Of the 28 interactions called as hits at an FDR of 1%, 21 of them replicated in this orthogonal system (FIG. 17). […] Conversely, we also detect 14 interactions that this previous study tested, but called negative.

MOR142-1 = test: as above; assay type: cell-based, mouse; details: OR MOR142-1; pair called as hit, FDR=1%
Excerpt: as §1

MOR102-1 = test: as above; assay type: cell-based, mouse; details: OR MOR102-1; pair called as hit, FDR=1%
Excerpt: as §1

MOR189-1 = test: as above; assay type: cell-based, mouse; details: OR MOR189-1; pair called as hit, FDR=1%
Excerpt: as §1

MOR208-1 = test: as above; assay type: cell-based, mouse; details: OR MOR208-1; pair called as hit, FDR=1%
Excerpt: as §1

MOR30-1 = test: as above; assay type: cell-based, mouse; details: OR MOR30-1; pair called as hit, FDR=1%
Excerpt: as §1

MOR120-1 = test: as above; assay type: cell-based, mouse; details: OR MOR120-1; pair called as hit, FDR=1%
Excerpt: as §1

MOR132-1 = biological target: T1, MOR132-1 (Mus musculus, UniProt Q8VFM9); test: as above; assay type: cell-based; details: OR MOR132-1; pair called as hit, FDR=1%
T1 construct: protein trafficking tags (N); expressed in transfected cells; host or cells: HEK293T-derived cells (Mukku3a), PiggyBac transposon, Tet-On inducible
Excerpt: as §1

MOR158-1 = test: as above; assay type: cell-based, mouse; details: OR MOR158-1; pair called as hit, FDR=1%
Excerpt: as §1

MOR170-1 = test: High-throughput multiplexed odorant screening (Smell-seq), 96-well, barcode RNA-seq readout; assay type: cell-based, mouse; details: OR MOR170-1; pair called as hit, FDR=1%
Procedure: 10. High-Throughput Odorant Screening
The OR library cell line was thawed from a liquid nitrogen frozen stock into a T-225 flask (Corning) three days before seeding into a 96-well plate for screening. The library was seeded at 6,666 cells per well in 100 ul of DMEM. 24 hours later a working concentration of 1 ug/ml of doxycycline in DMEM was added to the wells. 24 hours after induction, the media was removed from each plate and replaced with 25 ul of odorant diluted in OptiMEM. Each odor was added at three different concentrations (10 uM, 100 uM, 1 mM) in triplicate with the same amount of final DMSO (1%). Each plate contained two control odorants at a three concentration (10 uM, 100 uM, 1 mM) in triplicate and three wells containing 1% DMSO dissolved in media. The library was incubated with odorants for three hours in a cell culture incubator with the lids removed.
After odor incubation, media was pipetted out of the plates and cells were lysed by adding 25 uL of ice-cold Cells-to-cDNA II Lysis Buffer (Thermo Fisher) and pipetting up and down to homogenize and lyse cells. The lysate was then heated to 75° C. for 15 minutes and flash frozen with liquid nitrogen and kept at −80 C until further processing. Then 0.5 uL DNase I (New England Biolabs) was added to lysate, and incubated at 37° C. for 15 minutes. To anneal the RT primer, 5 ul of lysate from each well was combined with 2.5 ul of 10 mM dNTPs (New England Biosciences), 1 ul of 2 uM gene specific RT primer (OL003), and 1.5 ul of H2O. The reaction was heated to 65° C. for 5 min and cooled back down to 0° C. After annealing, 1 ul of M-MuLV Reverse Transcriptase (Enzymatics), 1 ul of buffer, and 0.25 ul of RNase Inhibitor (Enzymatics) were added to each reaction. Reactions were incubated at 42° C. for 60 min and the RT enzyme was heat inactivated at 85° C. for 10 min.
For each batch, qPCR was performed on a few wells (OL005F and OL013) with SYBR FAST qPCR Mastermix to determine the number of cycles necessary for PCR based library preparation. The reaction and cycling conditions are optimized as follows: 95° C. for 3 minutes, 40 cycles of 95° C. for 3 seconds and 60° C. for 20 seconds. After qPCR, 5 ul of each RT reaction was combined with 0.4 ul of 10 uM primers containing sequencing adaptors (OL005F and OL013), 10 ul of NEB-Next Q5 Mastermix (New England Biosciences) and 4.2 ul H2O, the PCR was carried out according to the manufacturer's protocol. The forward primer contains the P7 adaptor sequence and an index identifying the well in the assay and the reverse primer contains the P5 adaptor sequence and an index identifying the plate in the assay. PCR products were pooled together by plate and purified with the DNA Clean and Concentrator Kit. Library concentrations were quantified using a Tape Station 2200 and a Qubit (Thermo Fisher). The libraries were sequenced with two index reads and a single end 75-bp read on a NextSeq 500 in high-output mode (Illumina).
11. Analysis of Next-Generation Sequencing Data
Samples were identified via indexing by their PCR indexes adapters unique for each well (5′ end) and unique for each plate (3′ end). The well barcodes followed the 7 bp indexing scheme in (Illumina Sequencing Library Preparation for Highly Multiplexed Target Capture and Sequencing Matthias Meyer, Martin Kircher, Cold Spring Harb Protoc; 2010; doi:10.1101/pdb.prot5448). The plate indexing scheme followed the Illumina indexing scheme. Sequencing data was demultiplexed and 15 bp barcode sequences were counted with only exact matches by custom python and bash scripts.
12. Statistical Methods for Calling Hits
Count data was then analyzed using the differential expression package EdgeR. To filter out ORs with low representation, we set a cutoff that an OR had to contain at least 0.5% of the reads from more than 399 of the 1954 test samples. This filtered out 3 of 42 ORs which were underrepresented in the cell library (MOR172-1, MOR176-1 and MOR181-1). […]

MOR203-1 = test: High-throughput multiplexed odorant screening (Smell-seq), barcode RNA-seq readout; assay type: cell-based, mouse; details: OR MOR203-1; pair called as hit, FDR=1%
Excerpt: as §1

MOR180-1 = biological target: T2, MOR180-1 (Mus musculus, UniProt Q8VGS3); test: as above; assay type: cell-based; details: OR MOR180-1; pair called as hit, FDR=1%
T2 construct: protein trafficking tags (N); expressed in transfected cells; host or cells: HEK293T-derived cells (Mukku3a), PiggyBac transposon, Tet-On inducible
Excerpt: as §1

Olfr62 = test: as above; assay type: cell-based, mouse; details: OR Olfr62; pair called as hit, FDR=1%
Excerpt: as §1

MOR 199-1 = test: as above; assay type: cell-based, mouse; details: OR MOR 199-1; pair called as hit, FDR=1%
Excerpt: as §1

MOR9-1 = test: as above; assay type: cell-based, mouse; details: OR MOR9-1; pair called as hit, FDR=1%
Excerpt: as §1

MOR131-1 = test: as above; assay type: cell-based, mouse; details: OR MOR131-1; pair called as hit, FDR=1%
Excerpt: as §1

MOR112-1 = test: as above; assay type: cell-based, mouse; details: OR MOR112-1; pair called as hit, FDR=1%
Excerpt: as §1

MOR139-1 = test: as above; assay type: cell-based, mouse; details: OR MOR139-1; pair called as hit, FDR=1%
Excerpt: as §1

T2 sequence (Q8VGS3 whole entry): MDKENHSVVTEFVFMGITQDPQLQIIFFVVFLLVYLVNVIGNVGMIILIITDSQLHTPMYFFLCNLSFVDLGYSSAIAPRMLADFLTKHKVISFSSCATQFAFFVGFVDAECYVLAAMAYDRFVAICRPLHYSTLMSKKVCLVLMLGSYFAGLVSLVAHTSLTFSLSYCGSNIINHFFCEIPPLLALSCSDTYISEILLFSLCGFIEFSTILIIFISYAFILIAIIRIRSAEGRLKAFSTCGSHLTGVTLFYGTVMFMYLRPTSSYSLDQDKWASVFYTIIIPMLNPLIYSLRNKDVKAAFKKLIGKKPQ
T1 sequence (Q8VFM9 whole entry): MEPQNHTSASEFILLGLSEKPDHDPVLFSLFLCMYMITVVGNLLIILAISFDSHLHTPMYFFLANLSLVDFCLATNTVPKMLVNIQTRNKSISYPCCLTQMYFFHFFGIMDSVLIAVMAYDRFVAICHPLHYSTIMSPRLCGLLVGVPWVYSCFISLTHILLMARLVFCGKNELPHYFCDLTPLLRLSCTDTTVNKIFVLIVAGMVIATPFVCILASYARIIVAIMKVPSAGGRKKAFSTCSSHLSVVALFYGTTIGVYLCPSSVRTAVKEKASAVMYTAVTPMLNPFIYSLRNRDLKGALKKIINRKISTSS

SMILES: CCCCCC(=O)CC [3-Octanone]
- Minimum Activating Concentration (MOR133-1): 1000 µM

SMILES: CC(=O)O[C@]1(C)CC[C@@]23C[C@@H]1C(C)(C)[C@@H]2CC[C@H]3C [Cedryl acetate]
- Minimum Activating Concentration (MOR142-1): 1000 µM
- Minimum Activating Concentration (MOR102-1): 1000 µM
- Minimum Activating Concentration (MOR189-1): 1000 µM
- Minimum Activating Concentration (MOR208-1): 1000 µM
- Minimum Activating Concentration (MOR30-1): 1000 µM
- Minimum Activating Concentration (MOR120-1): 1000 µM
- Minimum Activating Concentration (MOR132-1): 1000 µM

SMILES: CC(=O)C1(C)CC2=C(CCCC2(C)C)CC1C (stereo not drawn) [Iso E Super]
- Minimum Activating Concentration (MOR158-1): 1000 µM

SMILES: CC(=O)OCc1ccc2c(c1)OCO2 [Piperonyl acetate]
- Minimum Activating Concentration (MOR170-1): 1000 µM
- Minimum Activating Concentration (MOR203-1): 1000 µM

SMILES: CCCCC/C(=C\c1ccccc1)C(OC)OC [a-Amylcinnamaldehyde dimethyl acetal]
- Minimum Activating Concentration (MOR180-1): 1000 µM

SMILES: CCc1occc(=O)c1O [ethyl maltol]
- Minimum Activating Concentration (MOR170-1): 1000 µM
- Minimum Activating Concentration (Olfr62): 1000 µM
- Minimum Activating Concentration (MOR 199-1): 100 µM

SMILES: CC1COCc2cc3c(cc21)C(C)(C)C(C)C3(C)C (stereo not drawn) [galaxolide]
- Minimum Activating Concentration (MOR9-1): 1000 µM
- Minimum Activating Concentration (MOR131-1): 1000 µM
- Minimum Activating Concentration (MOR112-1): 100 µM

SMILES: CC(C=O)Cc1ccc2c(c1)OCO2 (stereo not drawn) [helional]
- Minimum Activating Concentration (MOR170-1): 1000 µM
- Minimum Activating Concentration (MOR139-1): 1000 µM
- Minimum Activating Concentration (MOR203-1): 1000 µM

Reference: patent publication US20200255844A1, “MULTIPLEXED RECEPTOR-LIGAND INTERACTION SCREENS” (THE REGENTS OF THE UNIVERSITY OF CALIFORNIA, priority 2017, published 2020)
